Data: PMC8812547 (Proceedings of the National Academy of Sciences of the …, 2022)

Key:
KV2.1 = conditions: cited from earlier work
[1] = tested on: small dorsal root ganglion neurons; format: cell-based, mouse; conditions: A803467 1 µM with sPm1a; n = 6; sPm1a vs. A803467/sPm1a P = 0.0007
adult mice (hindpaw) [2] = format: in vivo, mouse; conditions: 0.2 nmol A803467 coadministered with 0.6 nmol sPm1a, intraplantar; P < 0.001
adult mice (hindpaw) [3] = test: mechanical paw withdrawal threshold; format: in vivo, mouse; conditions: 200 pmol A803467 with 600 pmol sPm1a; n = 5 to 8; P < 0.001
[4] = tested on: TTX-R NaV channels of small DRG neurons; format: cell-based, mouse; conditions: A803467 1 μM with sPm1a; TTX 0.5 μM; n = 5

ScTx1: gating-modifier venom peptide (DCTRMFGACRRDSDCCPHLGCKPTSKYCAWDGTI; Stromatoxin-1; UniProt P60991 1-34, looked up)
KV2.1 gating modification (KV2.1): shifting its activation to more depolarized voltages

COc1cc(NC(=O)c2ccc(-c3ccc(Cl)cc3)o2)cc(OC)c1 [A803467]
inhibition of sPm1a-induced neuronal firing [1]: abolished sPm1a-induced neuronal firing | spontaneous nocifensive behavior, paw flinches (adult mice (hindpaw) [2]): 93.8 ± 8.8 flinches per 15 min | paw withdrawal force (mechanical allodynia) (adult mice (hindpaw) [3]): 2.5 ± 0.2 g | reduction of sPm1a-sensitive TTX-R NaV component [4]: 87.3 ± 11.1%
